Test results taken from patent US9868758B2, “Betulinic proline imidazole derivatives as HIV inhibitors” (HETERO LABS LIMITED, priority 2014, dated 2018).
Read-outs that look alike come from different tables or passages of the source.

Tests used:
[1] = test system: HIV-1 strains, for e.g., 92HT599; assay: Antiviral activity: p24 estimation in HIV-1 infected MT-2 cells; format: cell-based
Procedure: MT-2 cells were infected with required number of TCID50's of HIV-1 strains, for e.g., 92HT599. The infected cells were plated at the concentration of 30,000 cells per well in a 96 well plate. Test compound was added to the 96 well plate with the final concentration of DMSO (vehicle—not more than 1%). The plates are then incubated in a CO2 incubator for ˜96 hours (˜4 days) for viral infection. At the end of incubation period an aliquot from each well was taken for p24 estimation. The quantitation of p24 is an estimated index for antiviral activity of the compound. Percent inhibition was calculated with reference to control values (vehicle controls).
p-24 estimation was carried out using Advance biosciences kit as per the procedure detailed by supplier.

[2] = Single dose oral pharmacokinetic study; design: species or system mice; conditions: mouse, in vivo
Procedure: The test item was administered through oral route to animals (rat/mice) at 30 mg/kg dose in a suitable vehicle at 10 ml/kg dose volume. Blood samples (˜50 uL at each time point) were collected from retro-orbital plexus using K3 EDTA as anticoagulant in eppendorf tubes at defined time intervals under light ether anesthesia. The samples were centrifuged at 3500×g to separate plasma and stored at −80° C. until analysis.
Sample analysis: Test samples were analyzed using LC-MS-MS after developing fit-for-purpose method for each of test compound.

[3] = Human immunodeficiency virus 1, MT2, MT-2 cells, p24, read-out: Antiviral activity IC50
[4] = Human immunodeficiency virus 1, MT2, read-out: Antiviral activity IC50 (nM)
[5] = Mice oral PK @30 mg/kg, plasma, read-out: AUC 0-t
[6] = Mice oral PK @30 mg/kg, plasma, read-out: Cmax

Row | Structure (SMILES) | IC50 [1, 3] | AUC(0-t) ([2]; po, 30 mg/kg) | Cmax ([2]; po, 30 mg/kg) | IC50 [1, 4] | AUC(0-t) [2, 5] | Cmax [2, 6]
1 | C=C(C)[C@@H]1CC[C@]2(C(=O)N3CCC[C@H]3c3nc(-c4ccccc4)cn3C)CC[C@]3(C)[C@H](CC[C@@H]4[C@@]5(C)CC[C@H](OC(=O)[C@H]6C[C@@H](C(=O)O)C6(C)C)C(C)(C)[C@@H]5CC[C@]43C)[C@@H]12 [Compound 1, (1R,3S)-2,2-dimethyl-3-((((1R,3aS,5aR,5bR,7aR,9S,11aR,11bR,13aR,13bR)-5a,5b,8,8,11a-pentamethyl-3a-((S)-2-(1-methyl-4-phenyl-1H-imidazol-2-yl)pyrrolidine-1-carbonyl)-1-(prop-1-en-2-yl)icosahydro-1H-cyclopenta[a]chrysen-9-yl)oxy)carbonyl)cyclobutane-1-carboxylic acid] | 6.74 nM | 250 µg·h/mL | 8540 ng/mL |  |  | 
2 | C=C(C)[C@@H]1CC[C@]2(C(=O)N3C[C@H](OCCOC)C[C@H]3c3nc(-c4ccccc4)cn3CCN(C)C)CC[C@]3(C)[C@H](CC[C@@H]4[C@@]5(C)CC[C@H](OC(=O)[C@H]6C[C@@H](C(=O)O)C6(C)C)C(C)(C)[C@@H]5CC[C@]43C)[C@@H]12 [Compound 25, (1R,3S)-3-((((1R,3aS,5aR,5bR,7aR,9S,11aR,11bR,13aR,13bR)-3a-((2S,4R)-2-(1-(2-(dimethylamino)ethyl)-4-phenyl-1H-imidazol-2-yl)-4-(2-methoxyethoxy)pyrrolidine-1-carbonyl)-5a,5b,8,8,11a-pentamethyl-1-(prop-1-en-2-yl)icosahydro-1H-cyclopenta[a]chrysen-9-yl)oxy)carbonyl)-2,2-dimethylcyclobutane-1-carboxylic acid] |  | 617 µg·h/mL | 17600 ng/mL |  |  | 
3 | C=C(C)[C@@H]1CC[C@]2(C(=O)N3CCC[C@H]3c3nc(-c4cccnc4)cn3CCN(C)C)CC[C@]3(C)[C@H](CC[C@@H]4[C@@]5(C)CC[C@H](OC(=O)[C@H]6C[C@@H](C(=O)O)C6(C)C)C(C)(C)[C@@H]5CC[C@]43C)[C@@H]12 [Compound 6, (1R,3S)-3-((((1R,3aS,5aR,5bR,7aR,9S,11aR,11bR,13aR,13bR)-3a-((S)-2-(1-(2-(dimethylamino)ethyl)-4-(pyridin-3-yl)-1H-imidazol-2-yl)pyrrolidine-1-carbonyl)-5a,5b,8,8,11a-pentamethyl-1-(prop-1-en-2-yl)icosahydro-1H-cyclopenta[a]chrysen-9-yl)oxy)carbonyl)-2,2-dimethyl cyclobutane-1-carboxylic acid] | 2.55 nM | 212 µg·h/mL | 9460 ng/mL |  |  | 
4 | C=C(C)[C@@H]1CC[C@]2(C(=O)N3CCC[C@H]3c3nc(-c4ccc(F)cc4)cn3CCP(=O)(OCC)OCC)CC[C@]3(C)[C@H](CC[C@@H]4[C@@]5(C)CC[C@H](OC(=O)[C@H]6C[C@@H](C(=O)O)C6(C)C)C(C)(C)[C@@H]5CC[C@]43C)[C@@H]12 [Compound 24, (1R,3S)-3-((((1R,3aS,5aR,5bR,7aR,9S,11aR,11bR,13aR,13bR)-3a-((S)-2-(1-(2-(diethoxyphosphoryl)ethyl)-4-(4-fluorophenyl)-1H-imidazol-2-yl)pyrrolidine-1-carbonyl)-5a,5b,8,8,11a-pentamethyl-1-(prop-1-en-2-yl)icosahydro-1H-cyclopenta[a]chrysen-9-yl)oxy)carbonyl)-2,2-dimethylcyclobutane-1-carboxylic acid] |  |  |  | 0.972 nM | 89.4 µg·h/mL | 2550 ng/mL
5 | C=C(C)[C@@H]1CC[C@]2(C(=O)N3CCC[C@H]3c3nc(-c4ccccc4)cn3CCP(=O)(OCC)OCC)CC[C@]3(C)[C@H](CC[C@@H]4[C@@]5(C)CC[C@H](OC(=O)[C@H]6C[C@@H](C(=O)O)C6(C)C)C(C)(C)[C@@H]5CC[C@]43C)[C@@H]12 [Compound 22, (1R,3S)-3-((((1R,3aS,5aR,5bR,7aR,9S,11aR,11bR,13aR,13bR)-3a-((S)-2-(1-(2-(diethoxyphosphoryl)ethyl)-4-phenyl-1H-imidazol-2-yl)pyrrolidine-1-carbonyl)-5a,5b,8,8,11a-pentamethyl-1-(prop-1-en-2-yl)icosahydro-1H-cyclopenta[a]chrysen-9-yl)oxy)carbonyl)-2,2-dimethyl cyclobutane-1-carboxylic acid] |  |  |  | 14.9 nM | 215 µg·h/mL | 5830 ng/mL
6 | C=C(C)[C@@H]1CC[C@]2(C(=O)N3CCC[C@H]3c3nc(-c4cccnc4)cn3CCN(C)C)CC[C@]3(C)[C@H](CC[C@@H]4[C@@]5(C)CC[C@H](OC(=O)CC(C)(C)C(=O)O)C(C)(C)[C@@H]5CC[C@]43C)[C@@H]12 [Compound 18, 4-(((1R,3aS,5aR,5bR,7aR,9S,11aR,11bR,13aR,13bR)-3a-((S)-2-(1-(2-(dimethylamino)ethyl)-4-(pyridin-3-yl)-1H-imidazol-2-yl)pyrrolidine-1-carbonyl)-5a,5b,8,8,11a-pentamethyl-1-(prop-1-en-2-yl)icosahydro-1H-cyclopenta[a]chrysen-9-yl)oxy)-2,2-dimethyl-4-oxobutanoic acid] | 80.4 nM | 3.01 µg·h/mL | 648 ng/mL |  |  | 
7 | C=C(C)[C@@H]1CC[C@]2(C(=O)N3CCC[C@H]3c3nc(-c4ccccc4)cn3CCOC)CC[C@]3(C)[C@H](CC[C@@H]4[C@@]5(C)CC[C@H](OC(=O)[C@H]6C[C@@H](C(=O)O)C6(C)C)C(C)(C)[C@@H]5CC[C@]43C)[C@@H]12 [Compound 4, (1R,3S)-3-((((1R,3aS,5aR,5bR,7aR,9S,11aR,11bR,13aR,13bR)-3a-((S)-2-(1-(2-methoxyethyl)-4-phenyl-1H-imidazol-2-yl)pyrrolidine-1-carbonyl)-5a,5b,8,8,11a-pentamethyl-1-(prop-1-en-2-yl)icosahydro-1H-cyclopenta[a]chrysen-9-yl)oxy)carbonyl)-2,2-dimethylcyclobutane-1-carboxylic acid] |  | 291 µg·h/mL | 9220 ng/mL |  |  | 
8 | C=C(C)[C@@H]1CC[C@]2(C(=O)N3CCC[C@H]3c3nc(-c4ccccc4)cn3CCN(C)C)CC[C@]3(C)[C@H](CC[C@@H]4[C@@]5(C)CC[C@H](OC(=O)[C@H]6C[C@@H](C(=O)O)C6(C)C)C(C)(C)[C@@H]5CC[C@]43C)[C@@H]12 [Compound 5, (1R,3S)-3-((((1R,3aS,5aR,5bR,7aR,9S,11aR,11bR,13aR,13bR)-3a-((S)-2-(1-(2-(dimethylamino)ethyl)-4-phenyl-1H-imidazol-2-yl)pyrrolidine-1-carbonyl)-5a,5b,8,8,11a-pentamethyl-1-(prop-1-en-2-yl)icosahydro-1H-cyclopenta[a]chrysen-9-yl)oxy)carbonyl)-2,2-dimethylcyclobutane-1-carboxylic acid] | 73.2 nM | 292 µg·h/mL | 10400 ng/mL |  |  | 
9 | C=C(C)[C@@H]1CC[C@]2(C(=O)N3CCC[C@H]3c3nc(-c4ccccc4)cn3CCN3CCCC3)CC[C@]3(C)[C@H](CC[C@@H]4[C@@]5(C)CC[C@H](OC(=O)[C@H]6C[C@@H](C(=O)O)C6(C)C)C(C)(C)[C@@H]5CC[C@]43C)[C@@H]12 [Compound 10, (1R,3S)-2,2-dimethyl-3-((((1R,3aS,5aR,5bR,7aR,9S,11aR,11bR,13aR,13bR)-5a,5b,8,8,11a-pentamethyl-3a-((S)-2-(4-phenyl-1-(2-(pyrrolidin-1-yl)ethyl)-1H-imidazol-2-yl)pyrrolidine-1-carbonyl)-1-(prop-1-en-2-yl)icosahydro-1H-cyclopenta[a]chrysen-9-yl)oxy)carbonyl)cyclo butane-1-carboxylic acid] | 7.75 nM | 145 µg·h/mL | 4640 ng/mL |  |  | 
10 | C=C(C)[C@@H]1CC[C@]2(C(=O)N3CCC[C@H]3c3nc(-c4ccccc4)cn3CCOCCOC)CC[C@]3(C)[C@H](CC[C@@H]4[C@@]5(C)CC[C@H](OC(=O)[C@H]6C[C@@H](C(=O)O)C6(C)C)C(C)(C)[C@@H]5CC[C@]43C)[C@@H]12 [Compound 2, (1R,3S)-3-((((1R,3aS,5aR,5bR,7aR,9S,11aR,11bR,13aR,13bR)-3a-((S)-2-(1-(2-(2-methoxyethoxy)ethyl)-4-phenyl-1H-imidazol-2-yl)pyrrolidine-1-carbonyl)-5a,5b,8,8,11a-pentamethyl-1-(prop-1-en-2-yl)icosahydro-1H-cyclopenta[a]chrysen-9-yl)oxy)carbonyl)-2,2-dimethyl cyclobutane-1-carboxylic acid] |  | 335 µg·h/mL | 11400 ng/mL |  |  | 
11 | C=C(C)[C@@H]1CC[C@]2(C(=O)N3CCC[C@H]3c3nc(-c4ccc(F)cc4)cn3CCN(C)C)CC[C@]3(C)[C@H](CC[C@@H]4[C@@]5(C)CC[C@H](OC(=O)[C@H]6C[C@@H](C(=O)O)C6(C)C)C(C)(C)[C@@H]5CC[C@]43C)[C@@H]12 [Compound 7, (1R,3S)-3-((((1R,3aS,5aR,5bR,7aR,9S,11aR,11bR,13aR,13bR)-3a-((S)-2-(1-(2-(dimethylamino)ethyl)-4-(4-fluorophenyl)-1H-imidazol-2-yl)pyrrolidine-1-carbonyl)-5a,5b,8,8,11a-pentamethyl-1-(prop-1-en-2-yl)icosahydro-1H-cyclopenta[a]chrysen-9-yl)oxy)carbonyl)-2,2-dimethyl cyclobutane-1-carboxylic acid] | 75.3 nM |  |  |  |  | 
